Test results published in article PMC10380083, “Synthesis of Prostate-Specific Membrane Antigen-Targeted Bimodal Conjugates of Cytotoxic Agents and Antiandrogens and Their Comparative Assessment with Monoconjugates” (International Journal of Molecular Sciences, 2023).
*1 amine or outer side, *2 acyl side, *3 side chain or, on linkers, in order; H or OH if unused. Where a SMILES comes first, the peptide text is derived from it. [ ]: non-standard residue; d: D form. The star is where a group is joined. GluureaLys(ε-3-ClBenzyl) = O=C(O)CC[C@H](NC(=O)N[C@@H](CCCCN(Cc1cccc(Cl)c1)*)C(=O)O)C(=O)O; X5 = O=C(O)CC[C@H](NC(=O)N[C@@H](CCCCN(Cc1ccc(C(=O)O)cc1)*)C(=O)O)C(=O)O; X6 = O=C(O)CC[C@H](NC(=O)N[C@@H](CCCCN(Cc1ccc(Br)cc1)*)C(=O)O)C(=O)O; Dolaproine = CO[C@@H]([C@@H]1CCCN1)[C@@H](C)C(=O)O; Dil = CC[C@H](C)[C@H](NC)[C@@H](CC(=O)O)OC; X2 = O=C(CCCc1cn(CCCN[*:1])nn1)[*:2]; PABC = O=C(OCc1ccc(N[*:1])cc1)[*:2]; X1 = C[C@@H](N*)[C@@H](O)c1ccccc1; Cit = NC(=O)NCCC[C@H](N)C(=O)O; Suc = O=C(CCC(=O)[*:2])[*:1]; NMeV = CN[C@H](C(=O)O)C(C)C; Ahx = NCCCCCC(=O)O

Legend:
[1] = biological target: T1, PSMA (glutamate carboxypeptidase II, GCPII) (Homo sapiens, UniProt Q04609); test: Inhibition of the NAAG cleavage reaction (affinity to PSMA), LNCaP cell extract; format: biochemical; conditions: SD
T1 construct: endogenous in cells; host or cells: LNCaP cells (Triton X-100 lysate, sonicated, supernatant after 1000g)
T1 sequence (Q04609 whole entry): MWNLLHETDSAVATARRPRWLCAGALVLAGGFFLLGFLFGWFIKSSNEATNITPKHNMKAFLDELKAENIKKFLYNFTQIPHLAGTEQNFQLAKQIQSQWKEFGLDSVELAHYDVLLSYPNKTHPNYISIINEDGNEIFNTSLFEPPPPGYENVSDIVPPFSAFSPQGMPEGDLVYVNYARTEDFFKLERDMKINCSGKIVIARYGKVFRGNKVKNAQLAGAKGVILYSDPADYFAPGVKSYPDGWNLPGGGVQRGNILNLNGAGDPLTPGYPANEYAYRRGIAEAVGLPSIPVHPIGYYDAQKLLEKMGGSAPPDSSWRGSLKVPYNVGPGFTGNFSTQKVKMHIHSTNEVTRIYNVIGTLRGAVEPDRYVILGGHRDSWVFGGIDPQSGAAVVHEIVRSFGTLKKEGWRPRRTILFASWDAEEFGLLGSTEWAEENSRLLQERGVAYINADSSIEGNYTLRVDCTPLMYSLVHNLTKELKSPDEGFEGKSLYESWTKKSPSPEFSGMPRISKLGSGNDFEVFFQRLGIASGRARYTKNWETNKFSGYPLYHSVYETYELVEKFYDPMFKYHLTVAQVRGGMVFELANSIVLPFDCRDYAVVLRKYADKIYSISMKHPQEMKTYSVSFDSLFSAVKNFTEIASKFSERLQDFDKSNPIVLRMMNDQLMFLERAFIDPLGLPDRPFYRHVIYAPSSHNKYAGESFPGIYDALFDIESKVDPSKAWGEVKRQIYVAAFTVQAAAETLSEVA
Procedure: The affinity of the four newly obtained ligands to PSMA was evaluated in vitro by inhibiting the cleavage of N-acetylaspartylglutamic acid (NAAG). One function of PSMA, also known as glutamate carboxypeptidase II (GCPII), is the cleavage of NAAG into N-acetylaspartate and glutamate. PSMA-specific ligands inhibit this reaction by interacting with the protein. Thus, the calculation of the values of half-maximum inhibition (IC50) allows evaluation of the binding efficiency of the synthesized compounds to the protein. The analogues of the obtained ligands 6a–d without a lysine residue in their structure were chosen as comparison ligands. Also, some ligands previously described in the literature were chosen as references.
LNCaP cells were cultured in RPMI medium with 10% FBS (Gibco, Billings, MT, USA), 1xGlutamax (Gibco) and 1x penicillin-streptomycin mixture (Gibco, USA). To suspend the cells, growth medium was removed from the 25 cm^2 vial, the cells were washed with PBS buffer and incubated for 5 min with 0.25% trypsin (1 mL). Trypsin was inactivated with complete growth medium (2 mL), washed with PBS, transferred 10^6 cells to a test tube, and 500 μL of lysis buffer (0.5% Triton X-100, 50 mM Tris-HCl (pH 7.5) and 1× Proteinase Inhibition cocktail) was added. The suspension was incubated for 30 min on ice and sonicated (seven times 7 sec at 20–30 s intervals) on ice to avoid overheating. The suspension was centrifuged for 10 min at 1000g at 4 °C, and the supernatant was used in further analysis.
The inhibition by PSMA ligands was analyzed using a non-radioactive protocol with detection of the glutamate released during the reaction. LNCaP cell line extract (10 μL) was mixed with 2 μL of the appropriate compound preparation. A series of dilutions of 2 nM-100 μM compounds was used for initial testing, with dilution steps of 3–5 times. To the resulting mixture, 1 μL of 100 μM NAAG solution was added. The mixture was incubated for 2 h at 37 °C. After incubation, the mixture was doubled with reaction buffer (13 μL) from the Amplex Red Glutamic Acid Kit (Molecular Probes Inc., Eugene, OR, USA), and the multi-component glutamate detection reaction mixture prepared according to the manufacturer’s protocol (26 μL) was added. Amplex Red stock solution: 5 μL Amplex® Red reagent stock solution, 1.25 μL HRP stock solution, 8 μL L-glutamate oxidase, 2.5 μL L-glutamate pyruvate transaminase, 0.5 μL L-alanine, 483 μL 1× reaction buffer. Incubation was performed for 1 h at 37 °C. The fluorescence of resorufin produced by conjugated glutamate detection kit reactions was detected on a VICTORX5 multidetector plate (Perkin Elmer Inc., Waltham, MA, USA) at an excitation length of 555 nm and detection at 580 nm. As a control for endogenous glutamate levels with replacement of the NAAG solution with water.

[2] = tested on: LNCaP cells; test: In vitro cytotoxicity, MTS assay, LNCaP; format: cell-based; conditions: 72 h, high PSMA expression, range 0.5 to 800 nM, triplicates
Procedure: (§1) The resulting bimodal conjugates were tested in vitro on three different PCa cell lines. We used LNCaP cells with high PSMA expression, 22Rv1 cells with moderate PSMA expression and PC-3 cells with extremely low PSMA expression. Different levels of PSMA expression in 22Rv1 and LNCaP cell lines allows evaluation of the effect of the level of expression on the toxicity of the target drugs. PSMA-negative cell line PC-3 allows a qualitative assessment of non-specific toxicity of the obtained compounds.
(§2) The cytotoxicity of the investigated substances was tested using the MTS assay with some modifications. Cells were seeded in the 96-well plates (Corning, New York, NY, USA) at concentration of 7000 cells per well for PC-3 culture, 12,000 cells per well for LNCaP cells and 20,000 cells per well for 22Rv1 line. The cells were counted using the automatic cell counter EVE. All cell lines were purchased from the American Type Culture Collection (ATCC, Manassas, VA, USA). After 1 day, serial dilutions of tested substances were added to the cells. Cell culture medium with addition of DMSO in appropriate concentrations was used as a negative control. DMSO (30%) was added in culture medium as a positive control. Cells were then incubated during 72 h at 37 °C and 5% CO2. Later, the culture medium from each well was removed and 20 μL of MTS reagent (CellTiter 96 AQueous Non-Radioactive Cell Proliferation Assay, Promega) were added to each well with 100 μL of new culture medium. After 4 h incubation at 37 °C in darkness, the absorbance of the solution was measured at 490 nm wavelength using Thermo Scientific Multiskan GO spectrometer. Cell viability was calculated as a percentage compared to control cells. The absorbance of MTS reagent in culture medium without cells was taken as zero. […] Experiments were performed in triplicates. Data were analyzed using Prism 9—GraphPad version 9.2.0 software. p values < 0.05 were considered significant.

[3] = tested on: 22Rv1 cells; test: In vitro cytotoxicity, MTS assay, 22Rv1; format: cell-based, human; conditions: 72 h, moderate PSMA expression, range 0.5 to 800 nM, triplicates
Procedure: as §1, §2

[4] = tested on: PC-3 cells; test: In vitro cytotoxicity, MTS assay, PC-3; format: cell-based, human; conditions: 72 h, extremely low PSMA expression, range 0.5 to 800 nM, triplicates
Procedure: as §1, §2

[5] = inhibition of NAAG cleavage, LNCaP cell extract, 2 h at 37 °C, glutamate detected with Amplex Red kit (fluorescence)

[N-]=[N+]=NCCCNC(=O)[C@H](CCCCN)NC(=O)[C@H](Cc1ccc(O)cc1)NC(=O)[C@H](Cc1ccccc1)NC(=O)CCC(=O)NCCCCCC(=O)N(CCCC[C@H](NC(=O)N[C@@H](CCC(=O)O)C(=O)O)C(=O)O)Cc1cccc(Cl)c1 [6a, (3S,7S,25S,28S,31S)-31-(4-aminobutyl)-36-azido-25-benzyl-12-(3-chlorobenzyl)-28-(4-hydroxybenzyl)-5,13,20,23,26,29,32-heptaoxo-4,6,12,19,24,27,30,33-octaazahexatriacontane-1,3,7-tricarboxylic acid]
IC50 [1]: 13 ± 3 nM

[N-]=[N+]=NCCCNC(=O)[C@H](CCCCN)NC(=O)[C@H](Cc1ccc(O)cc1)NC(=O)[C@H](Cc1ccccc1)NC(=O)CCC(=O)NCCCCCC(=O)N(CCCC[C@H](NC(=O)N[C@@H](CCC(=O)O)C(=O)O)C(=O)O)Cc1ccc(Br)cc1 [6b, (3S,7S,25S,28S,31S)-31-(4-aminobutyl)-36-azido-25-benzyl-12-(4-bromobenzyl)-28-(4-hydroxybenzyl)-5,13,20,23,26,29,32-heptaoxo-4,6,12,19,24,27,30,33-octaazahexatriacontane-1,3,7-tricarboxylic acid]
IC50 [1]: 11 ± 2 nM

[N-]=[N+]=NCCCNC(=O)[C@H](CCCCN)NC(=O)[C@H](Cc1ccc(O)cc1)NC(=O)[C@H](Cc1ccccc1)NC(=O)CCC(=O)NCCCCCC(=O)N(CCCC[C@H](NC(=O)N[C@@H](CCC(=O)O)C(=O)O)C(=O)O)Cc1ccc(C(=O)O)cc1 [6c, (3S,7S,25S,28S,31S)-31-(4-aminobutyl)-36-azido-25-benzyl-12-(4-carboxybenzyl)-28-(4-hydroxybenzyl)-5,13,20,23,26,29,32-heptaoxo-4,6,12,19,24,27,30,33-octaazahexatriacontane-1,3,7-tricarboxylic acid]
IC50 [1, 5]: 10 ± 3 nM

[N-]=[N+]=NCCCNC(=O)[C@H](CCCCN)NC(=O)[C@H](Cc1ccccc1)NC(=O)[C@H](Cc1ccccc1)NC(=O)CCC(=O)NCCCCCC(=O)N(CCCC[C@H](NC(=O)N[C@@H](CCC(=O)O)C(=O)O)C(=O)O)Cc1ccc(C(=O)O)cc1 [6d, (3S,7S,25S,28S,31S)-31-(4-aminobutyl)-36-azido-25,28-dibenzyl-12-(4-carboxybenzyl)-5,13,20,23,26,29,32-heptaoxo-4,6,12,19,24,27,30,33-octaazahexatriacontane-1,3,7-tricarboxylic acid]
IC50 [1, 5]: 5.5 ± 1.7 nM

CC[C@H](C)[C@@H]([C@@H](CC(=O)N1CCC[C@H]1[C@H](OC)[C@@H](C)C(=O)N[C@H](C)[C@@H](O)c1ccccc1)OC)N(C)C(=O)[C@@H](NC(=O)[C@H](C(C)C)N(C)C(=O)OCc1ccc(NC(=O)[C@H](CCCNC(N)=O)NC(=O)[C@@H](NC(=O)CCCc2cn(CCCNC(=O)[C@H](CCCCN)NC(=O)[C@H](Cc3ccc(O)cc3)NC(=O)[C@H](Cc3ccccc3)NC(=O)CCC(=O)NCCCCCC(=O)N(CCCC[C@H](NC(=O)N[C@@H](CCC(=O)O)C(=O)O)C(=O)O)Cc3cccc(Cl)c3)nn2)C(C)C)cc1)C(C)C [12a] ({GluureaLys(ε-3-ClBenzyl)-Ahx-Suc}-FYK[X2]V[Cit][PABC][NMeV]V[Dil][Dolaproine]-X1)
CC50, LNCaP [2]: 157.4 ± 2.0 nM | CC50, 22Rv1 [3]: 267.9 ± 3.8 nM | CC50, PC-3 [4]: >800 nM

CC[C@H](C)[C@@H]([C@@H](CC(=O)N1CCC[C@H]1[C@H](OC)[C@@H](C)C(=O)N[C@H](C)[C@@H](O)c1ccccc1)OC)N(C)C(=O)[C@@H](NC(=O)[C@H](C(C)C)N(C)C(=O)OCc1ccc(NC(=O)[C@H](CCCNC(N)=O)NC(=O)[C@@H](NC(=O)CCCc2cn(CCCNC(=O)[C@H](CCCCN)NC(=O)[C@H](Cc3ccc(O)cc3)NC(=O)[C@H](Cc3ccccc3)NC(=O)CCC(=O)NCCCCCC(=O)N(CCCC[C@H](NC(=O)N[C@@H](CCC(=O)O)C(=O)O)C(=O)O)Cc3ccc(Br)cc3)nn2)C(C)C)cc1)C(C)C [12b] ({X6-Ahx-Suc}-FYK[X2]V[Cit][PABC][NMeV]V[Dil][Dolaproine]-X1)
CC50, LNCaP [2]: 182.6 ± 2.2 nM | CC50, 22Rv1 [3]: 247.8 ± 3.3 nM | CC50, PC-3 [4]: >800 nM

CC[C@H](C)[C@@H]([C@@H](CC(=O)N1CCC[C@H]1[C@H](OC)[C@@H](C)C(=O)N[C@H](C)[C@@H](O)c1ccccc1)OC)N(C)C(=O)[C@@H](NC(=O)[C@H](C(C)C)N(C)C(=O)OCc1ccc(NC(=O)[C@H](CCCNC(N)=O)NC(=O)[C@@H](NC(=O)CCCc2cn(CCCNC(=O)[C@H](CCCCN)NC(=O)[C@H](Cc3ccc(O)cc3)NC(=O)[C@H](Cc3ccccc3)NC(=O)CCC(=O)NCCCCCC(=O)N(CCCC[C@H](NC(=O)N[C@@H](CCC(=O)O)C(=O)O)C(=O)O)Cc3ccc(C(=O)O)cc3)nn2)C(C)C)cc1)C(C)C [12c] ({X5-Ahx-Suc}-FYK[X2]V[Cit][PABC][NMeV]V[Dil][Dolaproine]-X1)
CC50, LNCaP [2]: 177.8 ± 2.2 nM | CC50, 22Rv1 [3]: 453.7 ± 9.8 nM | CC50, PC-3 [4]: >800 nM

CC[C@H](C)[C@@H]([C@@H](CC(=O)N1CCC[C@H]1[C@H](OC)[C@@H](C)C(=O)N[C@H](C)[C@@H](O)c1ccccc1)OC)N(C)C(=O)[C@@H](NC(=O)[C@H](C(C)C)N(C)C(=O)OCc1ccc(NC(=O)[C@H](CCCNC(N)=O)NC(=O)[C@@H](NC(=O)CCCc2cn(CCCNC(=O)[C@H](CCCCN)NC(=O)[C@H](Cc3ccccc3)NC(=O)[C@H](Cc3ccccc3)NC(=O)CCC(=O)NCCCCCC(=O)N(CCCC[C@H](NC(=O)N[C@@H](CCC(=O)O)C(=O)O)C(=O)O)Cc3ccc(C(=O)O)cc3)nn2)C(C)C)cc1)C(C)C [12d] ({X5-Ahx-Suc}-FFK[X2]V[Cit][PABC][NMeV]V[Dil][Dolaproine]-X1)
CC50, LNCaP [2]: 197.8 ± 2.7 nM | CC50, 22Rv1 [3]: 463.3 ± 8.0 nM | CC50, PC-3 [4]: >800 nM

NCCCC[C@H](NC(=O)N[C@@H](CCC(=O)O)C(=O)O)C(=O)O [DCL, (S)-2-(3-((S)-5-amino-1-carboxypentyl)ureido)pentanedioic acid, reference compound]
IC50 [1, 5]: 547 ± 389 nM

C[C@]12CC[C@H](OC(=O)CCCc3cn(CCCNC(=O)[C@H](Cc4ccc(O)cc4)NC(=O)[C@H](Cc4ccccc4)NC(=O)CCC(=O)NCCCCCC(=O)N(CCCC[C@H](NC(=O)N[C@@H](CCC(=O)O)C(=O)O)C(=O)O)Cc4cccc(Cl)c4)nn3)CC1=CC[C@@H]1[C@@H]2CC[C@]2(C)C(c3cccnc3)=CC[C@@H]12 [II, reference compound]
CC50, LNCaP [2]: >800 nM | CC50, 22Rv1 [3]: >800 nM | CC50, PC-3 [4]: >800 nM
